Non-standard residues stand in square brackets, D forms with d. No end group written: not given here.
Experiments:
[1] = tested on: several mammalian cell types; settings: energy-independent manner; cited from earlier work
STZ diabetic rats = assay: Lens opacity (cataract) in STZ rat model; format: in vivo, Sprague-Dawley rat; settings: 10 mg (Table 11: 10 mg/kg s.c.)
Experimental: (§1) A rat model of diabetes was established by combination of 6-week HFD and low dose of STZ (30 mg/kg) injection or a single high dose of STZ (65 mg/kg) in SD rats. See generally, K. Srinivasan, B. Viswanad, Lydia Asrat, C. L. Kaul and P. Ramarao, Combination of high-fat diet-fed and low-dose streptozotocin-treated rat: A model for type 2 diabetes and pharmacological screening, Pharmacological Research, 52(4): 313-320, 2005. Rats of the same batch fed with normal chow (NRC) were used as a control.

[2] = tested on: STZ and HFD/STZ diabetic rats; assay: Inner blood-retinal barrier function (Evans blue extravasation) in diabetic SD rats; format: in vivo, Sprague-Dawley rat; settings: compared to rats on a HFD not administered peptide
Experimental: FIGS. 10A and 10B are charts showing the integrity of the blood-retinal barrier of normal rats (NRC), diabetic rats, and diabetic rats treated with Phe-D-Arg-Phe-Lys-NH2 (SS-20) or D-Arg-2′,6′-Dmt-Lys-Phe-NH2(SS-31), as analyzed by Evans blue extravasation. (A) diabetes induced by STZ; (B) diabetes induced by HFD/STZ.
as §1
The effect of the aromatic-cationic peptides on the inner blood-retinal barrier function in the SD rat model was investigated.

HFD/STZ diabetic rats = assay: Lens opacity (cataract) in HFD/STZ rat model; format: in vivo, Sprague-Dawley rat; settings: for Percentage of opacity / Percentage of severe opacity / Turbidity degree + (mildly opaque), number in group / Turbidity degree ++ (opaque), number in group / Turbidity degree +++ (moderately opaque), number in group / Turbidity degree ++++ (severely opaque), number in group / Turbidity degree − (transparent), number in group: HFD/STZ rat model
Experimental: as §1

## 2′,6′-Dmt-D-Arg-Phe-Lys-NH2
[1]
  penetration of the plasma membrane: readily penetrates

## F[dR]FK-NH2
STZ diabetic rats
  Opacity degree ++++, number in group: 1
  Opacity degree +++, number in group: 0
  Opacity degree ++, number in group: 2
  Opacity degree +, number in group: 0
  Opacity degree −, number in group: 2
  Percentage of opacity: 60.0%
  Percentage of severe opacity: 20.0%
[2]
  inner blood-retinal barrier function: improved
HFD/STZ diabetic rats; HFD/STZ and STZ models (FIGS. 6 and 7, Tables 13 and 14)
  cataract formation in the lenses of diabetic rats: prevention or reversal of cataract formation
HFD/STZ diabetic rats; 3 mg (Table 9: 3 mg/kg s.c.)
  Percentage of opacity: 75.0%
  Percentage of severe opacity: 25.0%
  Turbidity degree + (mildly opaque), number in group: 1
  Turbidity degree ++ (opaque), number in group: 1
  Turbidity degree +++ (moderately opaque), number in group: 0
  Turbidity degree ++++ (severely opaque), number in group: 1
  Turbidity degree − (transparent), number in group: 1
HFD/STZ diabetic rats; 10 mg (Table 9: 10 mg/kg s.c.)
  Percentage of opacity: 75.0%
  Percentage of severe opacity: 0%
  Turbidity degree + (mildly opaque), number in group: 2
  Turbidity degree ++ (opaque), number in group: 1
  Turbidity degree +++ (moderately opaque), number in group: 0
  Turbidity degree ++++ (severely opaque), number in group: 0
  Turbidity degree − (transparent), number in group: 1
